Results published in article PMC9296036, “A peptide interfering with the dimerization of oncogenic KITENIN protein and its stability suppresses colorectal tumour progression” (Clinical and Translational Medicine, 2022).
Ends that are not written are not given here.

Test system: CT-26/iRFP/KITENIN-V5 liver metastases
Test: Intrasplenic hepatic metastasis model, CT-26/iRFP/KITENIN-V5 cells in syngeneic mice
Format: in vivo, mouse
Experimental: For hepatic metastasis analysis, 5‐ to 6‐week‐old Balb/c mice were obtained from OrientBio, Inc. (Seongnam, Korea) and housed in metal cages with free access to water and food. A syngeneic mouse model of colorectal liver metastasis was established by an infusion of tumour cells into the portal system via intrasplenic injection.[27] In brief, CT‐26/KITENIN‐iRFP‐expressing cells (2 × 10^5 cells/mouse) were injected into the spleen. Splenectomy was performed 15 min after an injection of CT‐26 cells. Mice were randomly assigned to two groups: scrambled peptide and KDIP (1, 5 mg/kg). Each peptide was given via intravenous injection six times for 2 weeks after 7 days of inoculation of tumour cells. Metastatic tumour nodules in the liver with a diameter of >1.0 mm were counted using a microscope, and a metastasis score was allocated based on nodule size as follows: 0 (no gross metastasis), 1 (tumour size >1 mm), 2 (tumour size 1 >5 mm) and 3 (tumour size >10 mm). The metastasis score was obtained by multiplying the number and the score of nodules. Fluorescence images of liver nodules expressing iRFP were taken using a Fluorescence‐labelled Organism Bioimaging Instrument (Cellgentek, Korea) and total fluorescence emitted from liver nodules was measured and compared between groups.
Effect of KAI1 C‐terminal interacting tetraspanin (KITENIN) dimerization‐interfering peptide (KDIP) on tumour growth and metastasis in in vivo mouse model of colorectal cancer (CRC). (A) Treatment with KDIP decreases cell invasion of KITENIN‐overexpressing CT‐26 cells. Cell invasion assay was performed in CT‐26 cells transfected with KITENIN and treated with scr‐peptide or KDIP (1 μM) (upper panel). […] For the evaluation of metastasis, total fluorescence emitted from liver nodules expressing iRFP was measured and counted (left panel) or metastatic tumour growth was counted as nodules that migrated to the surface of the liver, and a metastatic score was obtained by multiplying it with size (middle panel). Metastatic score or total fluorescence is represented as mean ± SEM. […]

[1] = KDIP 5 mg/kg versus scrambled peptide, immunoblot densitometry, n = 6

For YARVRRRGPRRWRLVSDEAV [KDIP], the “fluorescence of the hepatic nodule (liver metastasis, in words)” value (KDIP 5 mg/kg intravenously for 2 weeks, compared with scramble peptide group) was “significantly reduced”, the “KITENIN level in metastatic liver nodules (in words)” value [1] was “significantly decreased” and the “protein level of Myo10 in metastatic liver nodules (in words)” value [1] was “significantly decreased”.
